Measurements as given in PMC6407913, “DREADD Agonist 21 Is an Effective Agonist for Muscarinic-Based DREADDs in Vitro and in Vivo” (ACS Pharmacology & Translational Science, 2018).
Several values for one entry are separate records, joined by “and”; a condition that tells them apart may be missing. Identical values can stand only once. Like-named read-outs stand apart in the source and are kept apart here.

Tests used:
[1] = molecular target: T1, hM1 (Homo sapiens, UniProt P11229); assay: whole-cell [3H]NMS competition binding; conditions: hM1, FlpIn CHO cells, mean (±SEM)
T1 sequence (P11229 1-460): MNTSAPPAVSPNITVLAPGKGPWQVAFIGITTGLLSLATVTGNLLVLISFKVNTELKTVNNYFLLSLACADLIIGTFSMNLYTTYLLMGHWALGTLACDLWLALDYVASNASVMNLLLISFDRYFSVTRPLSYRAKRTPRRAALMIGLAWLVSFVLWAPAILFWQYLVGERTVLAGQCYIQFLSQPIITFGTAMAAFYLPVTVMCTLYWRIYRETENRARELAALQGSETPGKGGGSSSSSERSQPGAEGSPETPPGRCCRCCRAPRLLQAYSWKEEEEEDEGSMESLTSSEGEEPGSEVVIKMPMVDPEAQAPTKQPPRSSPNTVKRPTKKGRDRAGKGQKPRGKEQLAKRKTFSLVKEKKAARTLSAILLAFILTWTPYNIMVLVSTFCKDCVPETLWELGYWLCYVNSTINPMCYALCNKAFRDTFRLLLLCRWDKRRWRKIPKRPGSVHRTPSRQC

[2] = molecular target: T1, hM1; assay: ERK1/2 phosphorylation (pERK1/2) assay; type: cell-based; conditions: wildtype hM1
[3] = molecular target: T1, hM1; assay: pERK assay, antagonist mode (shift of ACh curve); type: cell-based; conditions: hM1, CHO cells
Text: (§1) In the absence of C21 ([B] = 0), this equation becomes the standard four-parameter logistic equation for fitting agonist concentration–response data.

[4] = molecular target: T2, D1 (Homo sapiens, UniProt P21728); assay: cAMP Glo-sensor assay, antagonist mode; type: cell-based; conditions: human D1, HEK293T cells, vs dopamine
Protocol: HEK293T cells in 10 cm plates were transfected with 4 μg of Glosensor and 4 μg of DNA encoding the human dopamine D1 receptor. The next day, cells were harvested and plated in polylysine-coated 384-well plates (Greiner) at a density of 20 000 cells/well in DMEM containing 1% dFBS. The next day, media was aspirated from each well and replaced with 20 μL of assay buffer containing 4 mM luciferin. Then, 10 μL of drugs were added 30 min later, and plates were read after 15 min.
as §1

[5] = molecular target: T3, 5-HT1B (Homo sapiens, UniProt P28222); assay: NIMH PDSP radioligand binding, membranes
T3 construct: NIMH PDSP
Protocol: (§2) Radioligand binding assays with membrane preparations to determine binding affinity were carried out as outlined before[540] and by the National Institute of Mental Health’s Psychoactive Drug Screening Program (NIMH PDSP) (https://pdsp.unc.edu/), Contract # HHSN-271–2013–00017-C. The NIMH PDSP is Directed by B.L.R. at the University of North Carolina at Chapel Hill, Chapel Hill, NC, and Project Officer Jamie Driscoll at NIMH, Bethesda, MD.

[6] = molecular target: 5-HT2B (Homo sapiens, UniProt P41595); assay: NIMH PDSP radioligand binding, membranes
Protocol: as §2

[7] = molecular target: T4, 5-HT5A (Homo sapiens, UniProt P47898); assay: NIMH PDSP radioligand binding, membranes
T4 construct: NIMH PDSP
Protocol: as §2

[8] = molecular target: T5, 5-HT6 (Homo sapiens, UniProt P50406); assay: NIMH PDSP radioligand binding, membranes
T5 construct: NIMH PDSP
Protocol: as §2

[9] = molecular target: T6, Alpha2C (Homo sapiens, UniProt P18825); assay: NIMH PDSP radioligand binding, membranes
T6 construct: NIMH PDSP
Protocol: as §2

[10] = molecular target: CB1 (Homo sapiens, UniProt P21554); assay: NIMH PDSP radioligand binding, membranes
Protocol: as §2

[11] = molecular target: T2, D1; assay: NIMH PDSP radioligand binding, membranes
Protocol: as §2

[12] = molecular target: D4 (Homo sapiens, UniProt P21917); assay: NIMH PDSP radioligand binding, membranes
Protocol: as §2

[13] = molecular target: KOR (Homo sapiens, UniProt P41145); assay: NIMH PDSP radioligand binding, membranes
Protocol: as §2

[14] = molecular target: M4 (Homo sapiens, UniProt P08173); assay: NIMH PDSP radioligand binding, membranes
Protocol: as §2

[15] = molecular target: M5 (Homo sapiens, UniProt P08912); assay: NIMH PDSP radioligand binding, membranes
Protocol: as §2

[16] = molecular target: T7, hM4Di (Homo sapiens, UniProt P08173, A203G/Y113C); assay: inhibition of isoproterenol-stimulated cAMP production; type: cell-based; parameters: expressed in transfected cells; conditions: inhibition of isoproterenol elevated cAMP, mean (±SEM)
T7 sequence (P08173 1-479 Y113C/A203G): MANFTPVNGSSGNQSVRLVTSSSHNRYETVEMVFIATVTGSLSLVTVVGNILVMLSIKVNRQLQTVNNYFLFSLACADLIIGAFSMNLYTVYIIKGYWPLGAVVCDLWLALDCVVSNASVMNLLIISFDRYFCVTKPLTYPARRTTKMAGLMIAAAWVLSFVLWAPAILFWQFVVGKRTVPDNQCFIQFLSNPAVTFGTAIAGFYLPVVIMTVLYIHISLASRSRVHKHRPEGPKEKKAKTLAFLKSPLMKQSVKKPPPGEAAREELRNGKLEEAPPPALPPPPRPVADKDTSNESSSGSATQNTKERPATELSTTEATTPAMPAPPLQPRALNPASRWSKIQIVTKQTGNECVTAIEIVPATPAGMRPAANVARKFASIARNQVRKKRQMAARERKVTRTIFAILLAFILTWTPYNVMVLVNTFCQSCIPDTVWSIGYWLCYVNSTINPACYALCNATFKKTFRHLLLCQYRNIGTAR

[17] = test system: hM3Dq expressed in ARC AgRP neurons; assay: food intake, hM3Dq in ARC AgRP neurons (Agrp-ires-Cre mice)
[18] = read-out: Ki #1-#5 (individual assays)
[19] = read-out: log Ki (individual assays) (converted)

M5, sequence (P08912 whole entry): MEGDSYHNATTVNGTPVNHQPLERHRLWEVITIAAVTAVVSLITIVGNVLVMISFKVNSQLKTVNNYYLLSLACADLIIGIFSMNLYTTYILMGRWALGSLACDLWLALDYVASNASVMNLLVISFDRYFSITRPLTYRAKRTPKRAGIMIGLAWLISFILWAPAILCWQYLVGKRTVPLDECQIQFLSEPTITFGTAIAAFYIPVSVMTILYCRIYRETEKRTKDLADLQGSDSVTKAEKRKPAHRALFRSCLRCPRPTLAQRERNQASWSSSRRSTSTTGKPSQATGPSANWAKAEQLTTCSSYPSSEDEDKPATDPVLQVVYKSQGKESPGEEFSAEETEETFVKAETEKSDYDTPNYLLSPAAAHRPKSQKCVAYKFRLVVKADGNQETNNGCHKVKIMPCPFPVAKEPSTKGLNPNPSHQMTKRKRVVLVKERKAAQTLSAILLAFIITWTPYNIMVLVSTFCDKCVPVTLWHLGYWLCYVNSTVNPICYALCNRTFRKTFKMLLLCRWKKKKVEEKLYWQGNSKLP
D4, sequence (P21917 whole entry): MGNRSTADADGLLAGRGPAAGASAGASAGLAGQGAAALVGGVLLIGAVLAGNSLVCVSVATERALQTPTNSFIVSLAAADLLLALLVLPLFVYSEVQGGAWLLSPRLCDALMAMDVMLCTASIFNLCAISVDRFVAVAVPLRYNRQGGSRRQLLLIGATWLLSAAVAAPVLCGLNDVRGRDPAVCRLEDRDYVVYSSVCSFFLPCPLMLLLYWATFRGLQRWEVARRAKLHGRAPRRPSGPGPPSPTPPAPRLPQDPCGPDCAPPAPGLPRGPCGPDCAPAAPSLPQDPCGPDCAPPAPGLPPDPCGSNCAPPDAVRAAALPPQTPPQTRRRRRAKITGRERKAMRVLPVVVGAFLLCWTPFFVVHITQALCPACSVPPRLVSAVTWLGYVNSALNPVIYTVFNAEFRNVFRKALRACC
T6 sequence (P18825 whole entry): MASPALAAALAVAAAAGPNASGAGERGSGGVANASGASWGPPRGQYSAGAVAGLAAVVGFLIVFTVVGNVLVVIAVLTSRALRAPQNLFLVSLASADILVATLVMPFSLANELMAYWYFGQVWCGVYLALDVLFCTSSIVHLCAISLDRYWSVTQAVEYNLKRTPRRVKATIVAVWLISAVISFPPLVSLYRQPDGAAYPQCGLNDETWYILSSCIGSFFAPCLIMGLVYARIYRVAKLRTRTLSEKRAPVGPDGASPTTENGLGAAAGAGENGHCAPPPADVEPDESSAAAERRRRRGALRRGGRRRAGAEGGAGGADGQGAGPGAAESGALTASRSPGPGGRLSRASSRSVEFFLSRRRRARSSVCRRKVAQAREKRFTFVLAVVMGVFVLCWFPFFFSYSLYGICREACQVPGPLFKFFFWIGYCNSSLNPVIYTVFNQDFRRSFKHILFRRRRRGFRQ
5-HT2B, sequence (P41595 whole entry, species assumed): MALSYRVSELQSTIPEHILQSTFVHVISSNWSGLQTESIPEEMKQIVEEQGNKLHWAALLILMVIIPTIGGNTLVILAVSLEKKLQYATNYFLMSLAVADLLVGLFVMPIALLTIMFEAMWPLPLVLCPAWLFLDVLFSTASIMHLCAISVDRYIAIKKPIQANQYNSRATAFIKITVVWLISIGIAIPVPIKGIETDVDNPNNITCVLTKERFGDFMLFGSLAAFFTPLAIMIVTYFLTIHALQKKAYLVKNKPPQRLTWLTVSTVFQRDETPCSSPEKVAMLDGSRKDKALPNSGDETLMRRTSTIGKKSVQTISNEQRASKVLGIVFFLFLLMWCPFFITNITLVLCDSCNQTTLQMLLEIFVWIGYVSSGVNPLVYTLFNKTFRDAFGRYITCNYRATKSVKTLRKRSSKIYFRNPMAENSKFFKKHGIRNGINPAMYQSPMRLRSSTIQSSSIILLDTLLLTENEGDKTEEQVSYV
KOR, sequence (P41145 whole entry): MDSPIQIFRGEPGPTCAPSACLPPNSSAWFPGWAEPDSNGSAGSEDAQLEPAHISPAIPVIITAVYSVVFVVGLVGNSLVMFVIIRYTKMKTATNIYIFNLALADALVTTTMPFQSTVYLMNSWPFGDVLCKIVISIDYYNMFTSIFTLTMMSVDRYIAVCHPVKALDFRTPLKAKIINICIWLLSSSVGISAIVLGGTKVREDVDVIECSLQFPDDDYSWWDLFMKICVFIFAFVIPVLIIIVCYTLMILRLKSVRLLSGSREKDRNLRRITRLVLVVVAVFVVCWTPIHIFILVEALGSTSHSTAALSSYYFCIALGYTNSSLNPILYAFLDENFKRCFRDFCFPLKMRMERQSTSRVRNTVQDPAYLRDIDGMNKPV
T2 sequence (P21728 whole entry): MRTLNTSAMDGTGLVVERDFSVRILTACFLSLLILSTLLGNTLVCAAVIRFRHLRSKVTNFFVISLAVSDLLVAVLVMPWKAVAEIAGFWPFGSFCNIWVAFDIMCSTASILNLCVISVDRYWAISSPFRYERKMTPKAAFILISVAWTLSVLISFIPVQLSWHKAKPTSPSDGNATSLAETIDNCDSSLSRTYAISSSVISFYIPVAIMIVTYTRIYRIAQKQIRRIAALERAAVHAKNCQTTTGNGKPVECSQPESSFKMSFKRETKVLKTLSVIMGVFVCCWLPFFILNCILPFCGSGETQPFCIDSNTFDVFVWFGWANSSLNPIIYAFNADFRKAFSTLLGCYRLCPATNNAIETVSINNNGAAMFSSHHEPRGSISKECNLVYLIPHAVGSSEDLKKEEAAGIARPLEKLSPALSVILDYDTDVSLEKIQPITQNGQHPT
T5 sequence (P50406 whole entry, species assumed): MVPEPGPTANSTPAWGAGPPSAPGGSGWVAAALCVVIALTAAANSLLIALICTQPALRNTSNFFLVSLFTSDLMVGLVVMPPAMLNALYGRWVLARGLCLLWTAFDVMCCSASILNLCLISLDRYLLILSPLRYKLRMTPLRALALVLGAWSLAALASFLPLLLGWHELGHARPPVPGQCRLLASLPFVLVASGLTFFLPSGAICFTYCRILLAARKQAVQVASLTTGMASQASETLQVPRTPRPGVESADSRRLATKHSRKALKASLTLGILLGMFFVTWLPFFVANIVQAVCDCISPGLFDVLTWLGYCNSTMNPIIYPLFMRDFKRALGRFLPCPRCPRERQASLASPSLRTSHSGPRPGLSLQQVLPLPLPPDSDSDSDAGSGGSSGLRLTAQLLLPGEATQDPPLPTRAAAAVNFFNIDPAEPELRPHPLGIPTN
T3 sequence (P28222 whole entry, species assumed): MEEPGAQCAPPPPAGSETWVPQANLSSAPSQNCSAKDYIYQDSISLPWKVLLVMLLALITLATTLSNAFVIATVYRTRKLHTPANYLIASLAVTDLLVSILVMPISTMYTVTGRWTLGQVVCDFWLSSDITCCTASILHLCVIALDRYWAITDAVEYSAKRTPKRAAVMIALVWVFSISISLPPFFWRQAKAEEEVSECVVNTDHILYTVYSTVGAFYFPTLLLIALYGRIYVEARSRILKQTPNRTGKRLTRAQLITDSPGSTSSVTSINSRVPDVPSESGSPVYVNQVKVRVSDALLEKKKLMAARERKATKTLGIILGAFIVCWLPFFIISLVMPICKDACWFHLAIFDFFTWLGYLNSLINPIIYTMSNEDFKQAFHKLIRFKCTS
T4 sequence (P47898 whole entry, species assumed): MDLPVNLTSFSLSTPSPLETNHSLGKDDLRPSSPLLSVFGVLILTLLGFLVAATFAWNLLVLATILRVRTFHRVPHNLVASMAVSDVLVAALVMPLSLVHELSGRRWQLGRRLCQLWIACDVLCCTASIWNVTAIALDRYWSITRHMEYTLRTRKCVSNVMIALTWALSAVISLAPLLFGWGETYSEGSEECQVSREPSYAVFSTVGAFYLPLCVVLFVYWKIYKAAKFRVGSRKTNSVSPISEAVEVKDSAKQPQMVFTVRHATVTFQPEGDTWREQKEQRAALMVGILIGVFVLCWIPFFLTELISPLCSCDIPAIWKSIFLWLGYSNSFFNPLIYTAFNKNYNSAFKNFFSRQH
M4, sequence (P08173 whole entry): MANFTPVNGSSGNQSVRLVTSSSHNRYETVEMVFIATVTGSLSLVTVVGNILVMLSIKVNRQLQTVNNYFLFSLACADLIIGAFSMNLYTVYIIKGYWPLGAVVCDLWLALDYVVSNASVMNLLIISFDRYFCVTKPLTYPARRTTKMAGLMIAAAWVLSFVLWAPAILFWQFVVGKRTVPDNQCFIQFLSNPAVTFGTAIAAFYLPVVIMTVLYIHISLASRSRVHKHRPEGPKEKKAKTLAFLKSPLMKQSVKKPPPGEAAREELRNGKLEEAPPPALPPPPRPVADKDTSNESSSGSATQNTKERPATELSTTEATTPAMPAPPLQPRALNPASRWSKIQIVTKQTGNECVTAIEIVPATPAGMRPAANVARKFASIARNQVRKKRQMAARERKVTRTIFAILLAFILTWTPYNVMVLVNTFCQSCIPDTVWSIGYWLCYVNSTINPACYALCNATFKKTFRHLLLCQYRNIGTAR
CB1, sequence (P21554 whole entry, species assumed): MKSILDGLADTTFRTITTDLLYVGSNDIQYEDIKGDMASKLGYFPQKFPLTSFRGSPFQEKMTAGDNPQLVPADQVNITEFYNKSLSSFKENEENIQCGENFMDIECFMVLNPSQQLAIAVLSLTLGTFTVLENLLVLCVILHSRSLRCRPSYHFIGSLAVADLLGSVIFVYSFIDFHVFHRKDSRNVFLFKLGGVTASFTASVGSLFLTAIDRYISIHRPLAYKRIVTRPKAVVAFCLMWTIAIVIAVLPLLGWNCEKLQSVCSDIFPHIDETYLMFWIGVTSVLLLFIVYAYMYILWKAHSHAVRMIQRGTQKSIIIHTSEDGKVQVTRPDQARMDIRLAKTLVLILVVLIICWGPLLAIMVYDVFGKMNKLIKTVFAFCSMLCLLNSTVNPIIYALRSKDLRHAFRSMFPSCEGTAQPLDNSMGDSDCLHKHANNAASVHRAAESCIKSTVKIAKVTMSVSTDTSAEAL

Structure (SMILES): c1ccc2c(c1)N=C(N1CCNCC1)c1ccccc1N2 [C21, 11-(1-piperazinyl)-5H-dibenzo[b,e][1,4]diazepine]
- Ki [1]: 1070 nM
- agonist activity in pERK1/2 assay [2]: no agonist activity
- antagonist activity (shift of acetylcholine curve, pERK) [3]: weak functional antagonism
- antagonist activity, cAMP assay [4]: antagonism
- Ki ([5]; read-out: Ki): 3640 nM
- Ki [5, 18]: 4590 nM and 4530 nM and 2320 nM
- Ki [5, 19]: 4570 nM
- Ki ([6]; read-out: Ki): 32.7 nM
- Ki [6, 19]: 26.9 nM and 38 nM and 28.2 nM and 39.8 nM
- Ki ([6]; read-out: pKi (mean) (converted)): 33.1 nM
- Ki ([7]; read-out: Ki): 1910 nM
- Ki [7, 18]: 3300 nM and 1400 nM and 2020 nM and 1430 nM
- Ki ([8]; read-out: Ki): 266 nM
- Ki [8, 18]: 421 nM and 193 nM and 232 nM
- Ki ([9]; read-out: Ki): 1690 nM
- Ki [9, 18]: 1860 nM and 936 nM and 2770 nM
- Ki ([10]; read-out: Ki): > 10000 nM
- Ki [10, 18]: > 10000 nM
- Ki ([11]; read-out: Ki): 479 nM
- Ki [11, 18]: 525 nM and 316 nM and 661 nM
- Ki ([12]; read-out: Ki): 2050 nM
- Ki [12, 18]: 1380 nM and 896 nM and 4050 nM and 3570 nM
- Ki ([13]; read-out: Ki): 2980 nM
- Ki [13, 18]: 6690 nM and 2680 nM and 1470 nM
- Ki ([14]; read-out: Ki): 1880 nM
- Ki [14, 18]: 1560 nM and 2440 nM and 3020 nM and 734 nM and 2800 nM
- Ki ([15]; read-out: Ki): 421 nM
- Ki [15, 18]: 175 nM and 395 nM and 1080 nM
- EC50 [16]: 17.8 nM
- food intake, light cycle, sated mice ([17]; AgRP-ires-Cre mice with AAV-DIO-hM3Dq-mCherry, i.p.): dose-dependently promoted food consumption at comparable levels to CNO
- food intake in control mice ([17]; wildtype (non-Cre-expressing) littermates injected with AAV-DIO-hM3Dq-mCherry): neither C21 nor CNO affected feeding behavior
